Assay results as given in patent EP4772500A1, “NOVEL ISOXAZOLE COMPOUND AS TM4SF5-SPECIFIC INHIBITOR AND USE THEREOF” (Seoul National University R&DB Foundation, priority 2023, dated 2025).

What was measured:
Assay type in all cases: cell-based, human
[1] = tested on: SNU449-TM4SF5 and Huh7-Con; experiment: qRT-PCR/Western blotting of laminin γ2, AFP and liver cancer markers in TM4SF5-expressing hepatocytes; details: 2.5 µM, 24 hours (FIG. 8h-i)
[2] = tested on: SNU449-TM4SF5 cells; experiment: Western blotting of NK cell stimulatory ligands; details: SNU449-TM4SF5, given concentration, 24 hours (FIG. 13c)
Method: Cell extracts were obtained from cells grown to a density of 70-80% without any treatment, or from cells treated with vehicle DMSO or drugs at the given concentrations for 24 hours. For the extract of hepatocytes or liver cancer cells, a lysis buffer (150 mM NaCl, 1% NP-40, 50 mM Tris-HCl, 0.25% sodium deoxycholate, pH 7.4) including a protease inhibitor cocktail (GenDEPOT) was used. In addition, after washing animal liver tissue twice with PBS, SDS, Na3VO4, and protease inhibitor cocktails (GenDEPOT) were added to a lysis buffer [50 mM Tris-HCl, pH 7.4, 1% NP40, 0.25% sodium deoxycholate, 150 mM NaCl, 1 mM EDTA (based on 500 ml)], followed by treatment at 4°C for 15 minutes. […] After quantification using BCA reagent (Thermo Scientific), a 4 × sample buffer [100% glycerol 4 ml, Tris-HCl, pH 6.8, 2.4 ml, SDS 0.8 g, Bromophenol blue 4 mg, betamercaptoethanol 0.4 ml, H2O 3.1 ml (based on 10 ml)] was added, followed by boiling at 100°C for 5 minutes. […]
After 24 hours, vehicle DMSO, drug ST-1-025, or ST-5-002 was treated at the given concentrations. […] (f) After treating NK92-EV or NK92-TM4SF5 cells with DMSO or drugs ST-2-001 (1 nM), ST-3-005 (10 nM or 1 µM), ST-5-001, or ST-5-002 (100 nM or 1 µM) for 24 hours, the expression of SLAMF7 expressed on the cell surface was analyzed through immunostaining using flow cytometry. […]

[3] = tested on: TM4SF5-non-expressing cells (SNU449Cp); experiment: 2D cell growth/proliferation, TM4SF5-non-expressing cells; details: 2D environment (FIG. 3a)
Method: The drugs treated were the positive control drug TSAHC or the ST-1-025 isoxazole compound at the given concentrations. From the time of starting culture (0 day), (FIG. 3a) in the case of 2D culture, the number of cells was measured after treating with the drug every 24 hours, or (FIG. 3b) in a 3D environment, the proliferation of cells (spheres) was observed and photographed with an optical microscope on the 5th and 7th days after a single drug treatment at the start of culture.

Row | Compound | elevated expressions of laminin γ2, AFP, phosphorylation of STAT3, FUCA and CD34 [1] | expression of the stimulatory ligands (MICA/B, SLAMF6, and SLAMF7) [2] | growth or proliferation [3]
1 | Cc1ccc(C(=O)Nc2ccc(-c3cc(-c4ccc(O)cc4)no3)cc2)cc1 [ST-5-002, N-(4-(3-(4-hydroxyphenyl)isoxazole-5-yl)phenyl)-4-methylbenzamide] | inhibited |  | 
2 | COc1ccc(-c2cc(-c3ccc(N)cc3)no2)cc1 [ST-1-025, 4-(5-(4-methoxyphenyl)isoxazole-3-yl)aniline] |  | increased again | no significant difference
